# From PubChem BioAssay AID212 (DTP/NCI, 2004)
# Where “and” joins values, the source holds several entries; their conditions need not be identical. Equal entries are not always repeated. Results filed as inconclusive are left out.
# Tested on: BDF1 mice, colon carcinoma 38 sc, T/C %
# Assay: NCI In Vivo Anticancer Drug Screen. Data for tumor model Colon Carcinoma 38 (subcutaneous) in B6D2F1 (BDF1) mice
# In short: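 Ratio of survival or tumor size, compound-treated animals relative to vehicle controls, in tumor-bearing mice.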
# [1] = endpoint: median tumor weight (est.), dose: 12.5 mg/kg/injection, schedule: Q07DX002 (ip), vehicle: saline with Tween-80, higher = larger tumour
# [2] = endpoint: median tumor weight (est.), dose: 100.0 mg/kg/injection, schedule: Q07DX002 (ip), vehicle: saline with Tween-80, higher = larger tumour
# [3] = endpoint: median tumor weight (est.), dose: 200.0 mg/kg/injection, schedule: Q07DX002 (ip), vehicle: other, higher = larger tumour
# [4] = endpoint: median tumor weight (est.), dose: 25.0 mg/kg/injection, schedule: Q07DX002 (ip), vehicle: saline with Tween-80, higher = larger tumour
# [5] = endpoint: median tumor weight (est.), dose: 50.0 mg/kg/injection, schedule: Q07DX002 (ip), vehicle: saline with Tween-80, higher = larger tumour
# [6] = endpoint: median tumor weight (est.), dose: 200.0 mg/kg/injection, schedule: Q07DX002 (ip), vehicle: saline with Tween-80, higher = larger tumour
# [7] = endpoint: median tumor weight (est.), dose: 400.0 mg/kg/injection, schedule: Q07DX002 (ip), vehicle: saline with Tween-80, higher = larger tumour
# [8] = endpoint: median tumor weight (est.), dose: 3.12 mg/kg/injection, schedule: Q07DX002 (ip), vehicle: saline with Tween-80, higher = larger tumour
# [9] = endpoint: median tumor weight (est.), dose: 6.25 mg/kg/injection, schedule: Q07DX002 (ip), vehicle: saline with Tween-80, higher = larger tumour
smiles,measurement,setting,value
Nc1nc(N)c2c(Cl)c(CNc3ccc(Cl)c(Cl)c3)ccc2n1,T/C,[1],73 % of control and 82 % of control and 88 % of control
same,T/C,[2],5 % of control and 19 % of control
Cc1ccc(S(=O)(=O)N/N=C/C(=O)O)cc1,T/C,"endpoint: median tumor weight (est.), dose: 12.5 mg/kg/injection, schedule: Q07DX002 (ip), vehicle: other, higher = larger tumour",116 % of control
same,T/C,"endpoint: median tumor weight (est.), dose: 25.0 mg/kg/injection, schedule: Q07DX002 (ip), vehicle: other, higher = larger tumour",165 % of control
same,T/C,"endpoint: median tumor weight (est.), dose: 50.0 mg/kg/injection, schedule: Q07DX002 (ip), vehicle: other, higher = larger tumour",75 % of control
same,T/C,"endpoint: median tumor weight (est.), dose: 100.0 mg/kg/injection, schedule: Q07DX002 (ip), vehicle: other, higher = larger tumour",90 % of control
same,T/C,[3],178 % of control
O=C(NC1CCCCC1)OCc1c(COC(=O)NC2CCCCC2)c(-c2ccc(Cl)c(Cl)c2)n2c1CCC2,T/C,[1],111 % of control
same,T/C,[4],85 % of control
same,T/C,[5],76 % of control
same,T/C,[2],95 % of control
same,T/C,[6],86 % of control
same,T/C,[7],80 % of control
COc1ccc(C2Oc3cc(OC)ccc3C(=O)C2c2ccccc2)cc1 (centres undefined),T/C,"endpoint: median tumor weight (est.), dose: 43.0 mg/kg/injection, schedule: Q07DX002 (ip), vehicle: other, higher = larger tumour",35 % of control
same,T/C,"endpoint: median tumor weight (est.), dose: 72.0 mg/kg/injection, schedule: Q07DX002 (ip), vehicle: other, higher = larger tumour",56 % of control
same,T/C,"endpoint: median tumor weight (est.), dose: 120.0 mg/kg/injection, schedule: Q07DX002 (ip), vehicle: other, higher = larger tumour",41 % of control
same,T/C,[3],34 % of control
same,T/C,"endpoint: median tumor weight (est.), dose: 333.33 mg/kg/injection, schedule: Q07DX002 (ip), vehicle: other, higher = larger tumour",82 % of control
CCOC(=O)c1ccc(NN=NCCF)cc1,T/C,[8],86 % of control
same,T/C,[9],94 % of control
same,T/C,[1],70 % of control
same,T/C,[4],89 % of control
O=C1CN(CN2CCOCC2)C(=O)CN1CN1CCOCC1,T/C,"endpoint: median tumor weight (est.), dose: 12.5 mg/kg/injection, schedule: Q07DX002 (ip), vehicle: saline, higher = larger tumour",115 % of control
same,T/C,"endpoint: median tumor weight (est.), dose: 50.0 mg/kg/injection, schedule: Q07DX002 (ip), vehicle: saline, higher = larger tumour",116 % of control and 107 % of control
same,T/C,"endpoint: median tumor weight (est.), dose: 100.0 mg/kg/injection, schedule: Q07DX002 (ip), vehicle: saline, higher = larger tumour",115 % of control
same,T/C,"endpoint: median tumor weight (est.), dose: 400.0 mg/kg/injection, schedule: Q07DX002 (ip), vehicle: saline, higher = larger tumour",50 % of control
Nc1ccc(C(OC(=O)c2cc3ccccc3c(Cc3c(O)c(C(=O)OC(c4ccc(N)cc4)(c4ccc(N)cc4)c4ccc(N)cc4)cc4ccccc34)c2O)(c2ccc(N)cc2)c2ccc(N)cc2)cc1,T/C,"endpoint: median tumor weight (est.), dose: 1.56 mg/kg/injection, schedule: Q07DX002 (ip), vehicle: saline with Tween-80, higher = larger tumour",100 % of control
same,T/C,[8],70 % of control
same,T/C,[9],92 % of control
same,T/C,[4],84 % of control and 93 % of control
same,T/C,[5],114 % of control
COc1cc(C(C)(C)C)cc(OC)c1C(O)(c1c(OC)cc(C(C)(C)C)cc1OC)c1c(OC)cc(C(C)(C)C)cc1OC,T/C,[1],70 % of control and 77 % of control
same,T/C,[5],95 % of control and 102 % of control
same,T/C,[6],88 % of control
same,T/C,[7],62 % of control
CC(=O)[C@]1(O)Cc2c(O)c3c(c(O)c2[C@@H](OC2CC(N)C(O)C(C)O2)C1)C(=O)c1c(O)cccc1C3=O (some centres undefined),T/C,"endpoint: median survival time, dose: 0.7 mg/kg/injection, schedule: Q07DX003 (iv), vehicle: water, higher = longer survival",87 % of control
same,T/C,"endpoint: median survival time, dose: 1.7 mg/kg/injection, schedule: Q07DX003 (iv), vehicle: water, higher = longer survival",107 % of control
same,T/C,"endpoint: median survival time, dose: 2.7 mg/kg/injection, schedule: Q07DX003 (iv), vehicle: water, higher = longer survival",176 % of control
CC[C@]1(O)C[C@H]2CN(CCc3c([nH]c4ccccc34)[C@@](C(=O)OC)(c3cc4c(cc3OC)N(C=O)[C@H]3[C@@](O)(C(=O)OC)[C@H](OC(C)=O)[C@]5(CC)C=CCN6CC[C@]43[C@@H]65)C2)C1,T/C,"endpoint: median tumor weight (est.), dose: 0.01 mg/kg/injection, schedule: Q07DX002 (ip), vehicle: saline, higher = larger tumour",123 % of control
same,T/C,"endpoint: median tumor weight (est.), dose: 0.03 mg/kg/injection, schedule: Q07DX002 (ip), vehicle: saline, higher = larger tumour",94 % of control
same,T/C,"endpoint: median tumor weight (est.), dose: 0.06 mg/kg/injection, schedule: Q07DX002 (ip), vehicle: saline, higher = larger tumour",95 % of control
same,T/C,"endpoint: median tumor weight (est.), dose: 0.12 mg/kg/injection, schedule: Q07DX002 (ip), vehicle: saline, higher = larger tumour",54 % of control
same,T/C,"endpoint: median tumor weight (est.), dose: 1.0 mg/kg/injection, schedule: Q07DX002 (ip), vehicle: saline, higher = larger tumour",96 % of control and 106 % of control
same,T/C,"endpoint: median tumor weight (est.), dose: 4.0 mg/kg/injection, schedule: Q07DX002 (ip), vehicle: saline, higher = larger tumour",43 % of control and 63 % of control
